Data reported in PubChem BioAssay AID1963959 (Molecular Pharmacology Branch, DTP, NCI, 2024).

Test system: T-47D spheroids with HUVEC/MSC, viability
Experiment: Anticancer human tumor T-47D cell line growth inhibition [PI3K];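 also: spheroids exposed to agents for seven days before reading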;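 as to viability, T/C: percent of DMSO vehicle control luminescence so 100% = untreated growth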
Settings: for viability, T/C: stronger effect = lower value; active = viability on the fitted dose curve at most 10% of control; inactive = the rest
Method in brief: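 Tumor cells grown as multi-cell spheroids with HUVEC endothelial cells and MSC fibroblast-like stroma were treated with targeted agents combined with inavolisib, alpelisib, duvelisib or copanlisib. Doses fell in half-log steps from near clinical Cmax, else from 10 microM. Viability was measured.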

[1] = curve of first compound, second compound 0.0316 µM
[2] = curve of first compound, second compound 0.1 µM
[3] = curve of first compound, second compound 0.316 µM
[4] = curve of first compound, second compound 1 µM
[5] = curve of first compound, second compound 3.16 µM
[6] = curve of first compound, second compound 10 µM
[7] = second compound 0.0316 µM, first compound 0.0316 µM
[8] = second compound 0.0316 µM, first compound 0.1 µM
[9] = second compound 0.0316 µM, first compound 0.316 µM
[10] = second compound 0.0316 µM, first compound 1 µM
[11] = second compound 0.0316 µM, first compound 3.16 µM
[12] = second compound 0.0316 µM, first compound 10 µM
[13] = second compound 0.1 µM, first compound 0.0316 µM
[14] = second compound 0.1 µM, first compound 0.1 µM
[15] = second compound 0.1 µM, first compound 0.316 µM
[16] = second compound 0.1 µM, first compound 1 µM
[17] = second compound 0.1 µM, first compound 3.16 µM
[18] = second compound 0.1 µM, first compound 10 µM
[19] = second compound 0.316 µM, first compound 0.0316 µM
[20] = second compound 0.316 µM, first compound 0.1 µM
[21] = second compound 0.316 µM, first compound 0.316 µM
[22] = second compound 0.316 µM, first compound 1 µM
[23] = second compound 0.316 µM, first compound 3.16 µM
[24] = second compound 0.316 µM, first compound 10 µM
[25] = second compound 1 µM, first compound 0.0316 µM
[26] = second compound 1 µM, first compound 0.1 µM
[27] = second compound 1 µM, first compound 0.316 µM
[28] = second compound 1 µM, first compound 1 µM
[29] = second compound 1 µM, first compound 3.16 µM
[30] = second compound 1 µM, first compound 10 µM
[31] = second compound 3.16 µM, first compound 0.0316 µM
[32] = second compound 3.16 µM, first compound 0.1 µM
[33] = second compound 3.16 µM, first compound 0.316 µM
[34] = second compound 3.16 µM, first compound 1 µM
[35] = second compound 3.16 µM, first compound 3.16 µM
[36] = second compound 3.16 µM, first compound 10 µM
[37] = second compound 10 µM, first compound 0.0316 µM
[38] = second compound 10 µM, first compound 0.1 µM
[39] = second compound 10 µM, first compound 0.316 µM
[40] = second compound 10 µM, first compound 1 µM
[41] = second compound 10 µM, first compound 3.16 µM
[42] = second compound 10 µM, first compound 10 µM

C[C@@H](NC(=O)c1ncnc(N)c1Cl)c1ncc(C(=O)Nc2cc(C(F)(F)F)c(Cl)cn2)s1 + Cc1nc(NC(=O)N2CCCC2C(N)=O)sc1-c1ccnc(C(C)(C)C(F)(F)F)c1
< 0.0316 µM: IC50 [6]
inactive: viability, T/C [7] 108% | viability, T/C [8] 99.6% | viability, T/C [9] 88.5% | viability, T/C [10] 87.2% | viability, T/C [11] 88% | viability, T/C [12] 102% | viability, T/C [13] 109% | viability, T/C [14] 80.1% | viability, T/C [15] 105% | viability, T/C [16] 80.6% | viability, T/C [17] 93% | viability, T/C [18] 99.5% | viability, T/C [19] 94.3% | viability, T/C [20] 99.5% | viability, T/C [21] 109% | viability, T/C [22] 86.8% | viability, T/C [23] 97.7% | viability, T/C [24] 97.3% | viability, T/C [25] 88% | viability, T/C [26] 86.7% | viability, T/C [27] 90.4% | viability, T/C [28] 91.4% | viability, T/C [29] 95.6% | viability, T/C [30] 100% | viability, T/C [31] 78% | viability, T/C [32] 69.3% | viability, T/C [33] 68.1% | viability, T/C [34] 64% | viability, T/C [35] 74% | viability, T/C [36] 73.2% | viability, T/C [37] 36.7% | viability, T/C [38] 37.1% | viability, T/C [39] 41.8% | viability, T/C [40] 36.7% | viability, T/C [41] 40% | viability, T/C [42] 46.6%
> 10 µM: IC50 [1] | IC50 [2] | IC50 [3] | IC50 [4] | IC50 [5]

C#Cc1c(F)ccc2cc(O)cc(-c3ncc4c(N5CC6CCC(C5)N6)nc(OCC56CCCN5CC(F)C6)nc4c3F)c12 (stereo unspecified) + CC(Nc1ncnc2nc[nH]c12)c1cc2cccc(Cl)c2c(=O)n1-c1ccccc1
> 10 µM: IC50 [1] | IC50 [2] | IC50 [3] | IC50 [4] | IC50 [5] | IC50 [6]
inactive: viability, T/C [7] 101% | viability, T/C [8] 116% | viability, T/C [9] 96.5% | viability, T/C [10] 106% | viability, T/C [11] 102% | viability, T/C [12] 104% | viability, T/C [13] 96.4% | viability, T/C [14] 86.3% | viability, T/C [15] 106% | viability, T/C [16] 106% | viability, T/C [17] 110% | viability, T/C [18] 89.3% | viability, T/C [19] 109% | viability, T/C [20] 80.9% | viability, T/C [21] 104% | viability, T/C [22] 95.2% | viability, T/C [23] 106% | viability, T/C [24] 97.8% | viability, T/C [25] 92.4% | viability, T/C [26] 116% | viability, T/C [27] 97.5% | viability, T/C [28] 76.7% | viability, T/C [29] 116% | viability, T/C [30] 93.1% | viability, T/C [31] 92.6% | viability, T/C [32] 93.5% | viability, T/C [33] 101% | viability, T/C [34] 84.3% | viability, T/C [35] 86.8% | viability, T/C [36] 86% | viability, T/C [37] 107% | viability, T/C [38] 91.3% | viability, T/C [39] 109% | viability, T/C [40] 87.9% | viability, T/C [41] 97.3% | viability, T/C [42] 89.6%

CNC(=O)c1ccc(N2C(=S)N(c3ccc(C#N)c(C(F)(F)F)c3)C(=O)C2(C)C)cc1F
> 10 µM: IC50 (curve of compound)
inactive: viability, T/C (compound 0.0316 µM) 106% [middle of 4 runs] | viability, T/C (compound 0.1 µM) 95.9% [middle of 4 runs] | viability, T/C (compound 0.316 µM) 105% [middle of 4 runs] | viability, T/C (compound 1 µM) 108% [middle of 4 runs] | viability, T/C (compound 3.16 µM) 91.4% [middle of 4 runs] | viability, T/C (compound 10 µM) 89.3% [middle of 4 runs]
